The text below walks through data of patent publication US10308640B2, “1,3-dihydroimidazole-2-thione derivatives for use in the treatment of pulmonary arterial hypertension and lung injury” (BIAL—PORTELA & CA S.A., priority 2012, dated 2019).

For assay [1], the system named is Monocrotaline (MCT) lung injury model of Pulmonary Arterial Hypertension. As to the kind of experiment: Survival in the Monocrotaline (MCT) lung injury model of Pulmonary Arterial Hypertension (Kaplan-Meier curves, 28 days). The format is in vivo, rat. Conditions: MCT rats; for survival (survival curve): compared to MCT group. The text has this: (§1) One of the most-used animal models is the Monocrotaline (MCT) lung injury model of Pulmonary Arterial Hypertension. Administration of MCT, that is metabolized in the liver to the reactive metabolite dehydromonocrotaline, results in a syndrome characterized by acute lung injury, interstitial pulmonary fibrosis, necrotizing pulmonary arteritis, pulmonary hypertension, right ventricular (RV) hypertrophy, myocarditis and hepatic venoocclusive disease.
(§2) The protocol to use is a standard one (Curr. Protoc. Pharmacol. 46:5.56.1-5.56.11(2009) John Wiley & Sons Inc). Rats, of 6-7 weeks old (150-200 g) are administered MCT 60 mg/kg subcutaneously, and the pathology usually develops in the course of initial 3 to 4 weeks with the animals dying within the next 2 weeks (5th-6th week). A decrease of 50% in food and water consumption is thought to be indicative of pathological status severe enough for testing.
Two studies were conducted separately and a combination analysis performed on the two studies. Each study consisted in the scheme represented in FIG. 1.
The experimental design of both studies was the same, with animals randomized in seven groups, five groups of 10 animals each (MCT, MCT+Bos300, MCT+Bos100, MCT+Compound B, MCT+Compound B+Bos100) and 2 groups of 6 animals each (SHAM and SHAM+Compound B).
The experimental details are described in more detail below; briefly, compounds were given to rats mixed with food starting, Compound B (30 mg/kg/day) for groups MCT+Compound B and SHAM+Compound B, bosentan (300 mg/kg/day) for group MCT+Bos300, bosentan (100 mg/kg/day) for group MCT+Bos100, Compound B+bosentan (30+100 mg/kg/day) for group MCT+Compound B+Bos100, and no compound for groups MCT and SHAM. Animals from groups MCT were administered MCT and animals from groups SHAM were administered vehicle. Twenty eight days later, surviving animals were sacrificed, tissues collected and weighed. During the entire experimental period food, water consumption and animal weight were monitored. The ratios organ weight to body weight (BW) were calculated to evaluate organ hypertrophy. The index of RV/LV+S was calculated as an index of RV hypertrophy. […]
Animals were given powdered food for an adaptation period of 3-5 days before treatment start. […] Food, water consumption and animal weight were monitored over the entire duration of the experiment.
Animals were given powdered food for an adaptation period of 3-5 days before treatment start. […] Animal weight, food and water consumption were evaluated twice a week and animals were regularly observed for any disease signs. Mortality was registered and on day 28 surviving animals were sacrificed, selected organs weighed and femurs removed and measured. […]

The test system is the same in assay [2]. As to the kind of experiment: Cardiac remodelling (organ weight ratios, Fulton index) in the MCT lung injury model of PAH. The format is in vivo, rat. The conditions noted are these: compared to MCT group; for right ventricular hypertrophy: 28 days.
From the text: as §1, §2
The experimental details are described in more detail below; briefly, compounds were given to rats mixed with food starting, Compound B (30 mg/kg/day) for groups MCT+Compound B and SHAM+Compound B, bosentan (300 mg/kg/day) for group MCT+Bos300, bosentan (100 mg/kg/day) for group MCT+Bos100, Compound B+bosentan (30+100 mg/kg/day) for group MCT+Compound B+Bos100, and no compound for groups MCT and SHAM. Animals from groups MCT were administered MCT and animals from groups SHAM were administered vehicle. Twenty eight days later, surviving animals were sacrificed, tissues collected and weighed. During the entire experimental period food, water consumption and animal weight were monitored. The ratios organ weight to body weight (BW) were calculated to evaluate organ hypertrophy. The index of RV/LV+S was calculated as an index of RV hypertrophy. In each study an n=10 animals was used for each MCT treatment group, and an n=6 was used for the groups not given MCT. The animals from MCT+Bos300 group from Study 1 were not considered for the combined survival analysis since these unexpectedly presented a higher mortality effect as compared to the MCT group. The surviving animals from this group were nevertheless considered for the cardiac remodelling analysis.
All data is expressed as mean±sem (Standard Error of the Mean) unless otherwise indicated. Differences between treatment groups were analysed by one-way ANOVA and post-hoc Newman-Keuls multiple comparison test. P<0.05 was considered statistically significant.
On day 28 surviving animals were sacrificed and the following tissues/organs collected and weighed: liver, kidney, lung, heart and spleen. Femurs were removed and measured. Heart was dissected into right ventricle, left ventricle+septum and these were also weighed. The ratio organ to body weight (BW) was calculated as well as the ratio organ weight to femur length. The index of RV/LV+S is an index of RV hypertrophy. Catecholamines were evaluated only on right ventricle and left ventricle+septum.
Whole spleen, whole liver, left kidney and lungs were removed, cleaned and weighed. Heart was removed, cleaned from atria and vascular tissue and weighed. Right ventricle was then dissected from the rest of the heart (left ventricle +septum) and both were weighed and put in tubes containing 0.2 M PCA. Femurs were removed, cleaned and length measured with a calliper.
The ratios organ weight to body weight and organ weight to femur length were calculated as well as the ratio right ventricular weight to left ventricular+septum weight.
Organs weighed were: liver, kidney, lung, heart and spleen. Heart was dissected into right ventricle, left ventricle+septum and these were also weighed. The ratio organ to body weight (BW) was calculated as well as the ratio organ weight to femur length. The index of RV/LV+S is an index of RV hypertrophy.
Whole spleen, whole liver, both kidneys and lungs were removed, cleaned and weighed. Heart was removed, cleaned from atria and vascular tissue and weighed. […]

The mark [3] stands for this setting: Bosentan 300 mg/kg/day, 28 days after MCT.
Where [4] appears, read: Compound B alone 30 mg/kg/day, 28 days after MCT.

For the molecule `COc1ccccc1Oc1c(NS(=O)(=O)c2ccc(C(C)(C)C)cc2)nc(-c2ncccn2)nc1OCCO` [bosentan, Bosentan], the “survival (survival curve)” value in assay [1] (bosentan 100 mg/kg/day in food) and in assay [1] (bosentan 300 mg/kg/day in food) was “No clear benefit” each time. Further, in assay [2] (setting [3]), the “Fulton Index (RV/LV+S)” value is on record as “significantly decreased”. Further, the “right ventricle (RV) weight over bodyweight (BW)” value in assay [2] (setting [3]) is “significantly decreased”. In addition, the right ventricular hypertrophy result in assay [2] (bosentan 100 mg/kg/day (MCT+Bos100)) was “significant decreased”; in assay [2] (bosentan 300 mg/kg/day (MCT+Bos300)), “marked and statistically significant decrease”.
With `Fc1cc(F)c2c(c1)C[C@@H](n1c(CCNCc3ccccc3)c[nH]c1=S)CO2` [Compound B, (R)-5-(2-(benzylamino)ethyl)-1-(6,8-difluorochroman-3-yl)-1H-imidazole-2(3H)-thione], the “survival (survival curve)” value in assay [1] (Compound B 30 mg/kg/day in food) is “slight increase in survival”. Moreover, the “survival rates compared to the use of bosentan alone” value in assay [1] (Compound B alone 30 mg/kg/day) is listed as “greater survival rates”. The right ventricular hypertrophy result in assay [2] (Compound B 30 mg/kg/day) is “significant decreased”. Also, in assay [2] (setting [4]), the “Fulton Index (RV/LV+S)” value was “significantly decreased”, the “heart weight over bodyweight (BW)” value is listed as “significantly decreased” and the “right ventricle (RV) weight over bodyweight (BW)” value is “significantly decreased”.
